Measurements reported in patent US7507860B2 (Pfizer Inc., priority 2004, dated 2009).
Substitutions are numbered along the chain they refer to. Like-named read-outs stand apart in the source and are kept apart here.

Columns and labels:
androgen receptor = target: T1, androgen receptor (Homo sapiens, UniProt P10275); experiment: AR antagonist cell assay (MDA-MB453-MMTV clone 54-19 luciferase reporter, 100 pM DHT); assay type: cell-based
T1 sequence (P10275 1-920 Q868H): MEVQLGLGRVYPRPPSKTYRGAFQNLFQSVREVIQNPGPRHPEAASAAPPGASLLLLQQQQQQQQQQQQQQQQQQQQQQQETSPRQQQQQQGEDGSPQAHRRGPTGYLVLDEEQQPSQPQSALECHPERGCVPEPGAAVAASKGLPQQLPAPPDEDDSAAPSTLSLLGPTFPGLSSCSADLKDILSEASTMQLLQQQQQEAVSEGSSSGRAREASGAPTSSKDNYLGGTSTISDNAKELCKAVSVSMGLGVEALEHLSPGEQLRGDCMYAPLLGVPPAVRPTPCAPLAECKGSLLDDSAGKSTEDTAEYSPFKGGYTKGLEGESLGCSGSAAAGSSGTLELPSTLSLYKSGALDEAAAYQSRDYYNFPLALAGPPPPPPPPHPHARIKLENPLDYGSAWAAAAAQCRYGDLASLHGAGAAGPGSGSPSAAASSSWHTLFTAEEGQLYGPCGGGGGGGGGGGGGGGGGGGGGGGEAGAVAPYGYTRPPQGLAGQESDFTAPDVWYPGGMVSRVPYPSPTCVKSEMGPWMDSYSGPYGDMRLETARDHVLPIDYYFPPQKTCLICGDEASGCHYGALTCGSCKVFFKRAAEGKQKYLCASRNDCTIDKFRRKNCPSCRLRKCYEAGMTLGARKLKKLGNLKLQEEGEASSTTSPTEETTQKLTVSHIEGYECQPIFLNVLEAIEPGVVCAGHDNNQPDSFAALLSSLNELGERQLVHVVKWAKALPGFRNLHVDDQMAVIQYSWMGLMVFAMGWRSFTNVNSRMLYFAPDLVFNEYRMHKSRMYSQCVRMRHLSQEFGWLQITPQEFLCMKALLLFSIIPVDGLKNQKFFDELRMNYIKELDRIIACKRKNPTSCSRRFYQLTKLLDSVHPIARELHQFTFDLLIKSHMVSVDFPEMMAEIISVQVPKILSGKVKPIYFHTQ
Protocol: The compounds ability to antagonize the effects of androgen on the androgen receptor were determined in a whole cell assay as described immediately below.
Experimental Procedure for AR Antagonist Cell Assay
This cell line is a stable transfected cell line with MDA-MB453 cell background (a human breast tumor cell line expressing androgen receptor). A MMTV minimal promoter containing ARE was first cloned in front of a firefly luciferase reporter gene. Then the cascade was cloned into transfection vector pUV120puro. […] Puromycin resistant stable cell line was selected. Cell Culture Media and Reagents:
Plating medium: DMEM (phenol red free), 10% charcoal treated HyClone serum, 1% L-glutamine
Assay medium: DMEM (phenol red free), 1% charcoal treated HyClone serum, 1% L-glutamine, and 1% penicillin/streptomycin
• 1. Cells are maintained in culture medium, splitting cells when they reach 80-90% confluence • 2. To test compounds, 10,000 cells/well are plated to opaque 96 cell culture plate in 100 ul/well plating medium, culture for overnight at 37° C. in cell culture incubator • 3. […] Add 10 ul/well freshly prepared DHT (final concentration at 100 pM) to each well, incubate at 37° C. for 17 hr (overnight) • 5.
The results are reported as the mean of multiple tests as described below (the numbers of tests are indicated in the footnote). N.D. denotes that the compound was not tested.

[1] = target: T2, human androgen receptor (hAR) (Homo sapiens, UniProt P10275); experiment: Competitive binding analysis on baculovirus/Sf9 generated hAR extracts with 3H-DHT tracer; details: hAR extract, 1 nM 3H-DHT, one hour at 4° C, mean of multiple tests
T2 construct: made in house; host or cells: baculovirus/Sf9 insect cells (crude extract)
T2 sequence (P10275 1-920): T1 sequence (P10275 1-920 Q868H) with H868Q
Protocol: The compounds of Formula I have affinity for the androgen receptor. […] The description below describes how the assay was carried out.
Competitive binding analysis was performed on baculovirus/Sf9 generated hAR extracts in the presence or absence of different concentrations of test agent and a fixed concentration of ^3H-dihydrotestosterone (^3H-DHT) as tracer. This binding assay method is a modification of a protocol previously described (Liao S., et. al. J. Steroid Biochem. 20:11-17 1984). Briefly, progressively decreasing concentrations of compounds are incubated in the presence of hAR extract (Chang et al. P.N.A.S. Vol. 89, pp. […], 1992), hydroxylapatite, and 1 nM^3H-DHT for one hour at 4° C. Subsequently, the binding reactions are washed three times to completely remove excess unbound ^3H-DHT. hAR bound ^3H-DHT levels are determined in the presence of compounds (=i.e competitive binding) and compared to levels bound when no competitor is present (=i.e. maximum binding). Compound binding affinity to the hAR is expressed as the concentration of compound at which one half of the maximum binding is inhibited. Table II below provides the results that were obtained for selected compounds (reported data is the mean of multiple tests as shown below)

[2] = MDA-MB453-MMTV clone 54-19, inhibition of 100 pM DHT induction, 17 hr; mean of multiple tests; read-out: AR Cell IC50

Compound | IC50 (androgen receptor; [2]) [µM] | IC50 ([1]; read-out: AR Binding IC50) [nM] | IC50 ([1]; AR Binding IC50 (nM)) [nM] | IC50 (androgen receptor; read-out: AR Cell IC50; MDA-MB453-MMTV clone 54-19, inhibition of 100 pM DHT induction, 17 hr; mean of multiple tests) [µM]
CC(C)CC(Oc1ccc(C#N)c(C(F)(F)F)c1)C(=O)NCCc1ccc(O)cc1 (centres unmarked) [Example 61, 2-(4-Cyano-3-trifluoromethyl-phenoxy)-4-methyl-pentanoic acid-[2-(4-hydroxyphenyl)-ethyl]-amide] | 0.341 | 86 | – | –
Cc1cccc(CNC(=O)C(CC(C)C)Oc2ccc(C#N)c(C(F)(F)F)c2)c1 (centres unmarked) [Example 37, 2-(4-Cyano-3-trifluoromethyl-phenoxy)-4-methyl-pentanoic acid-3-methyl-benzylamide] | > 1 | 41 | – | –
CCCC(Oc1ccc(C#N)c(C(F)(F)F)c1)C(=O)NCc1ccccc1OCC (centres unmarked) [Example 42, 2-(4-Cyano-3-trifluoromethyl-phenoxy)-pentanoic acid-2-ethoxy-benzylamide] | > 1 | 139 | – | –
CC(C)C[C@@H](Oc1ccc(C#N)c(C(F)(F)F)c1)C(=O)NCc1ccccc1 [Example 94, (R)-2-(4-Cyano-3-trifluoromethyl-phenoxy)-4-methyl-pentanoic acid benzylamide] | 0.14 | – | 66 | –
COc1ccc(CNC(=O)C(CC(C)C)Oc2ccc(C#N)c(C(F)(F)F)c2)cc1 (centres unmarked) [Example 39, 2-(4-Cyano-3-trifluoromethyl-phenoxy)-4-methyl-pentanoic acid-4-methoxy-benzylamide] | > 1 | 42 | – | –
COc1ccc(CNC(=O)C(CC(C)C)Oc2ccc(C#N)c(C(F)(F)F)c2)cn1 (centres unmarked) [Example 72, 2-(4-Cyano-3-trifluoromethyl-phenoxy)-4-methyl-pentanoic acid-(6-methoxy-pyridin-3-yl-methyl)-amide] | 0.251 | 82 | – | –
Cc1cccc(CCNC(=O)C(CC(C)C)Oc2ccc(C#N)c(C(F)(F)F)c2)c1 (centres unmarked) [Example 49, 2-(4-Cyano-3-trifluoromethyl-phenoxy)-4-methyl-pentanoic acid-(2-m-tolyl-ethyl)amide] | > 1 | 75 | – | –
CC(C)CC(Oc1ccc(C#N)c(C(F)(F)F)c1)C(=O)NC(C)c1cccs1 (centres unmarked) [Example 13, 2-(4-Cyano-3-trifluoromethyl-phenoxy)-4-methyl-pentanoic acid (1-thiophen-2-ylethyl)-amide] | 0.398 | 240 | – | –
COc1ccc([C@H](C)NC(=O)C(CC(C)C)Oc2ccc(C#N)c(C(F)(F)F)c2)cc1 (stereo in doubt) [Example 121, 2-(4-Cyano-3-trifluoromethyl-phenoxy)-4-methyl-pentanoic acid [1-(4-methoxy-phenyl)-ethyl]-amide] | 0.157 | 145 | – | –
CC(C)CC(Oc1ccc(C#N)c(C(F)(F)F)c1)C(=O)NCc1ccco1 (centres unmarked) [Example 11, 2-(4-Cyano-3-trifluoromethyl-phenoxy)-4-methyl-pentanoic acid (furan-2-yl-methyl)-amide] | > 1 | 172 | – | –
COc1ccccc1NC(=O)C(CC(C)C)Oc1ccc(C#N)c(C(F)(F)F)c1 (centres unmarked) [Example 87, 2-(4-Cyano-3-trifluoromethyl-phenoxy)-4-methyl-pentanoic acid (2-methoxy-phenyl)-amide] | > 1 | 119 | – | –
CCCC(Oc1ccc(C#N)c(C(F)(F)F)c1)C(=O)NC(C)Cc1ccsc1 (centres unmarked) [Example 18, 2-(4-Cyano-3-trifluoromethyl-phenoxy)-pentanoic acid (1-methyl-2-thiophen-3-ylethyl)-amide] | 0.815 | 222 | – | –
CC(C)CNC(=O)C(CC(C)C)Oc1ccc(C#N)c(C(F)(F)F)c1 (centres unmarked) [Example 8, 2-(4-Cyano-3-trifluoromethyl-phenoxy)-4-methyl-pentanoic acid isobutyl-amide] | 0.534 | 58 | – | –
CCCC(Oc1ccc(C#N)c(Cl)c1)C(=O)NCCc1ccc(O)cc1 (centres unmarked) [Example 103, 2-(3-Chloro-4-cyano-phenoxy)-pentanoic acid [2-(4-hydroxy-phenyl)-ethyl]-amide] | – | 140 | – | 0.087
CC(C)CC(Oc1ccc(C#N)c(C(F)(F)F)c1)C(=O)NCc1ccc2c(c1)CCO2 (centres unmarked) [Example 25, 2-(4-Cyano-3-trifluoromethyl-phenoxy)-4-methyl-pentanoic acid (2,3-dihydro-benzofuran-5-yl-methyl)-amide] | 0.798 | 67 | – | –
CCCOCCNC(=O)C(CC(C)C)Oc1ccc(C#N)c(C(F)(F)F)c1 (centres unmarked) [Example 81, 2-(4-Cyano-3-trifluoromethyl-phenoxy)-4-methyl-pentanoic acid (2-propoxy-ethyl)amide] | > 1 | 142 | – | –
COc1ccccc1CCNC(=O)C(CC(C)C)Oc1ccc(C#N)c(C(F)(F)F)c1 (centres unmarked) [Example 48, 2-(4-Cyano-3-trifluoromethyl-phenoxy)-4-methyl-pentanoic acid-[2-(2-methoxyphenyl)-ethyl]-amide] | > 1 | 123 | – | –
CC(C)CC(Oc1ccc(C#N)c(C(F)(F)F)c1)C(=O)N(CCO)C(C)C (centres unmarked) [Example 79, 2-(4-Cyano-3-trifluoromethyl-phenoxy)-4-methyl-pentanoic acid (2-hydroxy-ethyl)isopropyl-amide] | > 1 | 3130 | – | –
COc1ccc(CCNC(=O)C(CC(C)C)Oc2ccc(C#N)c(C(F)(F)F)c2)cc1 (centres unmarked) [Example 34, 2-(4-Cyano-3-trifluoromethyl-phenoxy)-4-methyl-pentanoic acid [2-(4-methoxyphenyl)-ethyl]amide] | > 1 | 68 | – | –
